Key:
VAChT = VAChT mRNA expression in N2a cells (RT-PCR); assay type: cell-based, mouse; conditions: for expression of VAChT mRNA: single ginsenoside (FIG. 7B); for expression of VAChT, dose dependence: various concentrations (FIG. 7D)
Source text: (§1) The present inventor reported that ChAT overexpressing human neural stem cells restored cognition with an increase of ACh levels in rat model (Park et al., Exp. Neurol., 234: 521-526, 2012). This implies that the increase of the ChAT level in cholinergic neurons plays a critical role in cognition enhancement and thus the cholinergic gene locus “VAChT/ChAT” can be a putative target for therapeutic approaches on AD. Thus the present inventor prepared transfected Neuro-2a (N2a) cells that over-express the human ChAT and APP (designated as “N2a.hChAT” and “N2a.hAPPswe”, respectively, FIG. 6) and the N2a.hChAT and N2a.hAPPswe cells were treated with the faction groups 1 to 5 isolated in the Example 3 at a centration of 50 μg/ml. Neuro-2a mouse neuroblastoma cells (Korean Cell Line Bank, Korea) were grown in DMEM supplemented with 10% fetal bovine serum (FBS), 100 U/m penicillin, and 100 μg/ml streptomycin (Invitrogen, USA) under 5% CO2 at 37° C. in tissue culture flasks. For all experiments, cells were grown to greater than 90% confluency and subjected to no more than 20 cell passages. The medium was changed every 2-3 days. Subconfluent cells were harvested and seeded at a density of 5×10^5 cells or 5×10^6 cells in poly-L-lysine-coated 35 mm or 60 mm culture plates. To recover the cells that are not completely saturated for analysis, poly-L-lysine coated 35 mm or 60 mm culture was seeded at a concentration of 5×10^5 or 5×10^6 cells on the plates. The extent of expression of hChAT and APP in the N2a.hChAT and N2a.hAAPswe cells treated with the faction groups 1 to 5 was quantified with RT-PCR using primers described in the below Table 2. At this time, beta-actin was used as an internal control.
(§2) Specifically, total RNA extracts from N2a cells were prepared using the Trizol method (Invitrogen, USA) and cDNA was synthesized from RNA by reverse transcription of 1 μg of total RNA using a reverse transcription system (Improm-II, Promega, USA) and oligo dT primers in a total volume of 20 μL. PCR amplification was performed using the primers described in Table 2 (Bioneer, Korea). Quantitative real-time PCR reactions were run on a Rotor-Gene 6000 (Corbett Research, Australia) using SensiMix™ SYBR Hi-ROX Kit (Bioline, U.K.) in 20 μL reaction mixtures. Each real-time-PCR master mix contained 10 μL 2× enzyme master mix, 7.0 μL RNase free water, 1 μL of each primer (10 pM each), and 1 μL diluted template. The PCR was performed with an initial pre-incubation step for 15 min at 95° C., followed by 45 cycles of 95° C. for 15 s, annealing at 52° C. for 15 s, and extension at 72° C. for 10 s. Melting curve analysis was used to confirm formation of the expected PCR product, and products from all assays were additionally tested with 1.2% agarose gel electrophoresis to confirm the correct lengths. An inter-run calibrator was used, and a standard curve was created for each gene to obtain PCR efficiencies. Relative sample expression levels were calculated using Rotor-Gene 6000 Series Software 1.7, and were expressed relative to β-actin and corrected for between-run variability. Data for the experimental samples were expressed as a fold unit the internal control gene.
(§3) In order to examine whether five ginsenosides affect the expression of ChAT related to the synthesis of acetylcholine and VAChT controlling extracellular secretion of acetylcholine, the present inventor analyzed the expression level of ChAT and VAChT after treating the five ginsenosides to N2a […] cells, respectively.

ChAT = ChAT mRNA expression in N2a cells (RT-PCR); assay type: cell-based, mouse; conditions: for expression of ChAT mRNA: single ginsenoside (FIG. 7A); for expression of ChAT, dose dependence: various concentrations (FIG. 7C)
Source text: as §1, §2, §3

[1] = HPLC analysis of ginsenosides transported into the brain after oral administration; assay type: in vivo, BALB/c mice; conditions: mice, oral mixture of Rb1, Re, Rd, Rg1, Rg3 10 mg/kg each, brain taken after six hours, HPLC (FIG. 22)
Procedure: Thus, the present inventor performed an HPLC analysis on brain tissue extract obtained from experimental animals administrated with mixture of five ginsenosides (Rb1, Rd, Re, Rg1 and Rg3) which are contained in RgC, in order to investigate whether RgC or ginsenosides Rd, Re and Rg3 can pass through the BBB. For the HPLC analysis of ginsenosides transported into the brain, a mixture of Rb1, Re, Rd, Rg1, and Rg3 (10 mg/kg each) was administered to ten-week-old male BALB/c mice (Central Lab. Animals, Korea). Brain tissues were isolated six hours after the oral administration of the ginsenosides after the complete perfusion with 0.9% saline solution, mechanically disrupted using a TissueLyser (Qiagen, Crawley, U.K.), and centrifuged for 10 min at 13500 rpm. The supernatant (1 mL) was then mixed with n-butanol (0.4 mL) and the butanol layer was completely evaporated and dried for HPLC analysis. The chromatography was performed by the Agilent 1100 series HPLC system (Agilent Technologies, USA) equipped with a vacuum degasser, quaternary pump, and ultraviolet (UV) detector. Chromatographic separation was performed on a Zorbax SB-Aq C18 column (4.6150 mm, 5 μm) and a mixture of solvent A (water) and solvent B (acetonitrile) flowed at a rate of 1 mL/min. The gradient elution program was initiated with 79% solvent A and 21% solvent B, 0-10 min (21-22% B), 10-11 min (22-23% B), 11-29 min (23-24% B), 29-34 min (24-30% B), 34-44 min (30-32% B), 44-49 min (32-50% B), 49-64 min (50-65% B), 64-78 min (65-100% B), and equilibrated with the initial gradient program (21% B) for 10 min prior to the next injection. The column temperature was set at 35° C., the volume of the sample injection was 10 μL, and detection wavelength was set at 203 nm. The animal experiments were approved by the Gangneung-Wonju National University Animal Care and Use Committee (Approval Number: GWNU-2013-23), and all procedures were conducted in accordance with the Guide for Care and Use of Laboratory Animals published by the National Institute of Health.

SMILES	expression of VAChT mRNA (VAChT)	expression of VAChT, dose dependence (VAChT)	expression of ChAT mRNA (ChAT)	expression of ChAT, dose dependence (ChAT)	penetration into the brain (passage through BBB) [1]
CC(C)=CCC[C@](C)(O[C@@H]1O[C@H](CO)[C@@H](O)[C@H](O)[C@H]1O)[C@H]1CC[C@]2(C)[C@@H]1[C@H](O)C[C@@H]1[C@@]3(C)CC[C@H](O[C@@H]4O[C@H](CO)[C@@H](O)[C@H](O)[C@H]4O[C@@H]4O[C@H](CO)[C@@H](O)[C@H](O)[C@H]4O)C(C)(C)[C@@H]3CC[C@]12C [ginsenoside Rd]	significantly increased	increased expression of ChAT and VAChT in a dose-dependent manner	significantly increased	increased expression of ChAT and VAChT in a dose-dependent manner	penetrated into the brain
CC(C)=CCC[C@](C)(O[C@@H]1O[C@H](CO)[C@@H](O)[C@H](O)[C@H]1O)[C@H]1CC[C@]2(C)[C@@H]1[C@H](O)C[C@@H]1[C@@]3(C)CC[C@H](O)C(C)(C)[C@@H]3[C@@H](O[C@@H]3O[C@H](CO)[C@@H](O)[C@H](O)[C@H]3O[C@@H]3O[C@@H](C)[C@H](O)[C@@H](O)[C@H]3O)C[C@]12C [ginsenoside Re]	significantly increased	increased expression of ChAT and VAChT in a dose-dependent manner	significantly increased	increased expression of ChAT and VAChT in a dose-dependent manner	penetrated into the brain
CC(C)=CCC[C@](C)(O)[C@H]1CC[C@]2(C)[C@@H]1[C@H](O)C[C@@H]1[C@@]3(C)CC[C@H](O[C@@H]4O[C@H](CO)[C@@H](O)[C@H](O)[C@H]4O[C@@H]4O[C@H](CO)[C@@H](O)[C@H](O)[C@H]4O)C(C)(C)[C@@H]3CC[C@]12C [ginsenoside Rg3]	no significant increase	–	no significant increase	–	penetrated into the brain
